Data from the supplement of paper PMC10307832.

Legend:
Assay in all cases: relative viability (nuclei count vs DMSO), 5 days (fraction); higher = more cells survive
[1] = compound: C1=CC2=C(C=C(C(=C2N=C1)O)N=NC3=CC4=C(C=C3)C=C(C=C4)S(=O)(=O)O)S(=O)(=O)O + CCNC(=O)c1noc(-c2cc(C(C)C)c(O)cc2O)c1-c1ccc(CN2CCOCC2)cc1 [Luminespib] (partner 0.01 µM)
How it was run: (§1)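 A single step with final 0.05% Triton X-100, 1% formaldehyde and 1 ug/ml Hoechst fixed the cells and stained nuclei 5 days after treatment. Lung cancer cell lines in 1536-well plates had been treated by pin tool the day after seeding with one drug alone or a fixed anchor-drug dose plus five library-drug doses (not always all listed) in √10 steps, and nuclei were counted on 4× images. Relative viability is the ratio of nuclei in treated wells to nuclei in vehicle wells, taken as the median of duplicate plates.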

[2] = compound: C1=CC2=C(C=C(C(=C2N=C1)O)N=NC3=CC4=C(C=C3)C=C(C=C4)S(=O)(=O)O)S(=O)(=O)O + O=C(c1cc(Cc2n[nH]c(=O)c3ccccc23)ccc1F)N1CCN(C(=O)C2CC2)CC1 [Olaparib] (partner 8 µM)
How it was run: as §1

[3] = compound: O=C(NC1CCNCC1)c1n[nH]cc1NC(=O)c1c(Cl)cccc1Cl [AT-7519] + NC(=O)Nc1cc(-c2cccc(F)c2)sc1C(=O)N[C@H]1CCCNC1 [AZD7762] (partner 0.2 µM)
How it was run: as §1

[4] = compound: O=C(NC1CCNCC1)c1n[nH]cc1NC(=O)c1c(Cl)cccc1Cl [AT-7519] + CS(=O)(=O)N1CCN(Cc2cc3nc(-c4cccc5[nH]ncc45)nc(N4CCOCC4)c3s2)CC1 [Pictilisib] (partner 1 µM)
How it was run: as §1

Cell Line	relative viability ([1]; first compound 0.08 µM)	relative viability ([1]; first compound 0.253 µM)	relative viability ([1]; first compound 0.8 µM)	relative viability ([1]; first compound 2.53 µM)	relative viability ([1]; first compound 8 µM)	relative viability ([2]; first compound 0.08 µM)	relative viability ([2]; first compound 0.8 µM)	relative viability ([2]; first compound 2.53 µM)	relative viability ([2]; first compound 8 µM)	relative viability ([3]; first compound 0.3162 µM)	relative viability ([3]; first compound 1 µM)	relative viability ([4]; first compound 0.01 µM)	relative viability ([4]; first compound 0.03162 µM)	relative viability ([4]; first compound 0.3162 µM)	relative viability ([4]; first compound 1 µM)	relative viability ([2]; first compound 0.253 µM)	relative viability ([3]; first compound 0.01 µM)	relative viability ([3]; first compound 0.03162 µM)
NCI-H1623	0.747	0.471	0.471	0.503	0.559	–	–	–	–	–	–	–	–	–	–	–	–	–
NCI-H1703	–	–	–	–	–	0.3	0.339	0.475	0.41	0.152	0.148	0.322	0.234	0.241	0.129	–	–	–
Calu-6	–	–	–	–	–	0.55	0.55	0.58	0.658	–	–	0.863	0.919	0.689	0.131	0.546	–	–
EBC-1	–	–	–	–	–	0.808	0.694	0.758	0.732	–	–	0.393	0.31	0.288	0.139	0.634	–	–
SW 1573	0.174	0.598	0.268	0.372	0.216	0.574	0.523	0.483	0.29	–	–	0.576	0.463	0.386	0.196	0.413	–	–
NCI-H2228	0.136	0.13	0.134	0.166	0.0984	0.779	0.658	0.851	0.751	–	–	0.357	0.371	0.473	0.149	0.772	–	–
HCC-78	–	–	–	–	–	0.971	0.733	0.801	0.811	0.616	0.815	0.208	0.214	0.146	0.209	0.908	0.609	0.636
IA-LM	–	–	–	–	–	1.01	0.788	0.747	0.952	–	–	0.31	0.328	0.191	0.0278	0.777	–	–
COR-L23	0.748	0.581	0.64	0.726	0.738	0.308	0.35	0.394	0.296	–	–	0.728	0.598	0.291	0.0899	0.344	–	–
NCI-H2023	0.87	0.741	0.788	0.914	0.52	0.509	0.442	0.528	0.416	–	–	0.25	0.24	0.207	0.172	0.443	–	–
COR-L 105	0.786	0.722	0.99	0.697	0.489	0.676	0.732	0.701	0.83	–	–	0.372	0.423	0.254	0.246	0.62	–	–
NCI-H520	0.237	0.218	0.237	0.225	0.231	0.327	0.337	0.301	0.387	–	–	0.344	0.296	0.249	0.171	0.342	–	–
SK-LU-1	0.175	0.203	0.208	0.209	0.175	0.603	0.399	0.567	0.512	–	–	0.591	0.54	0.5	0.357	0.475	–	–
NCI-H2342	0.67	0.714	0.625	0.767	0.73	0.476	0.452	0.462	0.711	0.508	0.447	–	–	–	–	0.466	0.514	0.507
NCI-H1299	–	–	–	–	–	1.01	0.935	0.956	0.976	–	–	0.865	0.738	0.507	0.127	0.95	–	–
NCI-H1650	0.197	0.177	0.194	0.191	0.184	0.825	0.781	0.812	0.894	–	–	0.701	0.548	0.295	0.177	0.677	–	–
NCI-H2009	1.08	0.995	1.04	1.14	0.623	0.656	0.681	0.743	0.711	–	–	0.914	0.763	0.654	0.247	0.663	–	–
SW 900	0.175	0.2	0.18	0.186	0.163	1.1	0.75	0.878	0.757	0.677	0.477	–	–	–	–	0.826	0.637	0.616
SK-MES-1	0.786	0.818	0.735	0.662	0.783	0.793	0.609	0.691	0.707	–	–	0.457	0.272	0.328	0.276	0.703	–	–
NCI-H1648	–	–	–	–	–	–	–	–	0.893	0.578	1.12	–	–	–	–	0.793	0.63	–
NCI-H522	1.21	1.19	0.983	1.16	1.11	0.601	0.564	0.561	0.708	0.859	0.904	–	–	–	–	0.625	1	0.661
A549	–	–	–	–	–	0.469	0.299	0.313	0.135	–	–	0.463	0.466	0.421	0.0948	0.331	–	–
NCI-H661	0.932	0.887	0.847	0.945	0.849	0.744	0.831	0.761	0.72	–	–	0.398	0.386	0.399	0.289	0.744	–	–
NCI-H1563	0.514	0.522	0.489	0.498	0.404	–	–	–	–	–	–	0.591	0.612	0.764	0.511	–	–	–
